Measured values taken from patent US20240336606A1 (Suzhou Zelgen Biopharmaceuticals Co., Ltd., priority 2020, published 2024).

Assays:
[1] = test system: MIA PaCa-2 tumor cells; assay: Anti-tumor pharmacodynamic evaluation, MIA PaCa-2 subcutaneous xenograft; format: in vivo; conditions: MIA PaCa-2 in nude mice
Description: 100 μL of a suspension containing 5×10^6 MIA PaCa-2 tumor cells was subcutaneously inoculated into the right posterior abdomens of nude mice. The health of the mice was monitored daily, and measurements were started when tumors grew to be palpable. The tumor volume was calculated as follows: 0.5×L×W^2, where L and W represent the length and width of the tumor, respectively. When the tumors grew to about 100 mm^3, the mice were randomized into groups. The mice were intragastrically administered a corresponding dose (50 mg/kg) of compound suspension in CMC-Na twice daily, and their general states were monitored at the same time. The tumors were measured 3 times a week, and the body weight was measured twice a week.

[2] = test system: H358 cells; assay: Inhibition of H358 cell proliferation (CellTiter-Glo 3D, 7 days); format: cell-based; conditions: Homo sapiens, 168 h, NCI-H358, 7 days, read-out: IC50 (nM), inhibitory activity on H358 cell proliferation
Description: • (a) The cells were thawed in T75 cell culture flasks:
• (b) When 80-90% cell confluence was achieved, the cells were passaged.
The diluted test compounds were added to a 384-well cell culture plate using a nanoliter pipetting system, and duplicate wells were set. An equal volume of medium was added to the positive control group; an equal volume of DMSO was added to the negative control group. The plate was centrifuged at 1000 rpm at room temperature for 1 min.
The cells were inoculated into a) 384-well culture plate, an equal volume of cells was added to the negative control group, and only an equal volume of medium was added to the positive control group. The plate was centrifuged at 1000 rpm at room temperature for 1 min. The final concentration of DMSO in the final compounds was 0.5%. The plate was incubated in a thermostatic incubator at 37° C. with 5% CO2 for 7 days.
CellTiter-Glo® 3D was added to b) 384-well cell culture plate at 20 μL/well. The plate was shaken at 320 rpm in the dark for 20 min, and incubated at room temperature in the dark for 2 h. The luminescence values were read using an Envision multi-mode microplate reader.
The inhibition rates of the compounds at different concentrations were calculated in Excel, and then inhibition curves were plotted and relevant parameters including minimum inhibition rate, maximum inhibition rate and IC50 were calculated using GraphPad Prism software.

[3] = molecular target: T1, binding of KRAS^G12C to SOS1 (Homo sapiens, UniProt Q07889); assay: Inhibition of the binding of KRAS^G12C to SOS1; conditions: Tag1-SOS1 / Tag2-KRAS^G12C, 2 h incubation at room temperature; read-out: IC50 (nM), inhibitory activity on the binding of KRAS^G12C to SOS1
T1 construct: Tag1 (unspecified)
T1 sequence (Q07889 1-1333): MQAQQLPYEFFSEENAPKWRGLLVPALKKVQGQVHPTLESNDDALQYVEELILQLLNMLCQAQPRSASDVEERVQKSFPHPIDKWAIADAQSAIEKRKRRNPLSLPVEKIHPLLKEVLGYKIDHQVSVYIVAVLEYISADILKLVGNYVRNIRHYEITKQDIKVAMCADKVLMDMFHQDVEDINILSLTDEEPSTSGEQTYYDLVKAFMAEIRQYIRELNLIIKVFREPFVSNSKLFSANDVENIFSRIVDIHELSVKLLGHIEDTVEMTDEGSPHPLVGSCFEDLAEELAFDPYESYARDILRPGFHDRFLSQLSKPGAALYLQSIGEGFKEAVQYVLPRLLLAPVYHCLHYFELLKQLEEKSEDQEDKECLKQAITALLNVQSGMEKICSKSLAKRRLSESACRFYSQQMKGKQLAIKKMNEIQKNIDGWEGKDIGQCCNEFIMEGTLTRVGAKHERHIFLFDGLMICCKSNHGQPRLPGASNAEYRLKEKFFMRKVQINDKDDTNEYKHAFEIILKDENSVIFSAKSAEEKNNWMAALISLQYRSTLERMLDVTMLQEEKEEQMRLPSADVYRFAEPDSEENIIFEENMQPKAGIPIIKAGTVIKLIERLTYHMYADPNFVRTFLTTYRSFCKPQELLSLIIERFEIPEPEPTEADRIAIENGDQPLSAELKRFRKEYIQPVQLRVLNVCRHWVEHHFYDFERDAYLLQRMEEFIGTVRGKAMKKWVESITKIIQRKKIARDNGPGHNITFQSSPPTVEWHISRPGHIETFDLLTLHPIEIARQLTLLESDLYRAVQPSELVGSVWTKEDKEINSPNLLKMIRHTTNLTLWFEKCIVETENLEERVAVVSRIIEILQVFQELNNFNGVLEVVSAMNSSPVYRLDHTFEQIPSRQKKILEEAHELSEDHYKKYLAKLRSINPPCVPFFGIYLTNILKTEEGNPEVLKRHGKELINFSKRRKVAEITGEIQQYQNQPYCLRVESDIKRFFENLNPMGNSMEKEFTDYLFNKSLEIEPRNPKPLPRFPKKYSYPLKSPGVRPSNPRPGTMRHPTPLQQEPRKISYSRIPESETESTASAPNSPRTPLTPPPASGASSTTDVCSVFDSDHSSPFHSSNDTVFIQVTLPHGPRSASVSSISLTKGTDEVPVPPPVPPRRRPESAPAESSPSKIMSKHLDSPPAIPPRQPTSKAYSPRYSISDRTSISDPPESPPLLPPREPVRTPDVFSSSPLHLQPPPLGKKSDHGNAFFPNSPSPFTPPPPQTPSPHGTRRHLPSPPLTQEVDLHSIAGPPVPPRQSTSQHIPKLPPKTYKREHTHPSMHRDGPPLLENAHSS
Outline: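 Tag1-SOS1 and Tag2-KRAS^G12C mixed with serially diluted compound (final 0.25% DMSO), then anti-Tag1-Tb3+ and anti-Tag2-XL665 added for 2 h at room temperature. IC50 from curve fit of the TR-FRET signal.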

[4] = Day 21, 50 mg/kg intragastric twice daily

SMILES | IC50 [2] [nM] | IC50 [3] [nM] | TV (mm^3) (tumor volume) Day 0 ([1]; Day 0 (at grouping), 50 mg/kg intragastric twice daily) | % TGI (tumor growth inhibition) [1, 4] [%] | TV (mm^3) (tumor volume) Day 21 [1, 4]
COCCOc1cc2c(N[C@H](C)c3cccc(C(F)(F)C(C)(C)O)c3F)nc(C)nc2cc1OC [Example 72, (R)-1,1-Difluoro-1-(2-fluoro-3-(1-((7-methoxy-6-(2-methoxyethoxy)-2-methylquinazolin-4-yl)amino)ethyl)phenyl)-2-methylpropan-2-ol] | 16.6 | 3.2 | 103 | 84.9 | 175
COCCOc1cc2c(N[C@H](C)c3cc(F)cc(C(F)(F)C(C)(C)O)c3)nc(C)nc2cc1OC [Example 80, (R)-1,1-Difluoro-1-(3-fluoro-5-(1-((7-methoxy-6-(2-methoxyethoxy)-2-methylquinazolin-4-yl)amino)ethyl)phenyl)-2-methylpropan-2-ol] | 53 | 6.2 |  |  | 
COCCOc1cc2c(N[C@H](C)c3cc(N)cc(C(F)(F)C(C)(C)O)c3)nc(C)nc2cc1OC [Example 74] | 6.5 | 3.1 |  |  | 
COCCOc1cc2c(N[C@H](C)c3cc(C(F)(F)C(C)(C)O)ccc3F)nc(C)nc2cc1OC [Example 79, (R)-1,1-Difluoro-1-(4-fluoro-3-(1-((7-methoxy-6-(2-methoxyethoxy)-2-methylquinazolin-4-yl)amino)ethyl)phenyl)-2-methylpropan-2-ol] | 419 | 19 |  |  | 
COc1cc2nc(C)nc(N[C@H](C)c3cc(N)cc(C(F)(F)F)c3)c2cc1OCCOC1COC1 [Example 44, (R)—N-(1-(3-Amino-5-(trifluoromethyl)phenyl)ethyl)-7-methoxy-2-methyl-6-(2-(oxetan-3-yloxy)ethoxy)quinazolin-4-amine] | 25 | 4.4 |  |  | 

Continued, in another order:

IC50 [2] [nM] | IC50 [3] [nM] | SMILES | TV (mm^3) (tumor volume) Day 0 ([1]; Day 0 (at grouping), 50 mg/kg intragastric twice daily) | % TGI (tumor growth inhibition) [1, 4] [%] | TV (mm^3) (tumor volume) Day 21 [1, 4]
130 | 6.7 | COCCOc1cc2c(N[C@H](C)c3cccc(C(F)(F)C(C)(C)O)c3F)nc(C)nc2cc1C#N [Example 89, (R)-4-((1-(3-(1,1-Difluoro-2-hydroxy-2-methylpropyl)-2-fluorophenyl)ethyl)amino)-6-(2-methoxyethoxy)-2-methylquinazoline-7-carbonitrile] |  |  | 
33 | 4.5 | COc1cc2nc(C)nc(N[C@H](C)c3cc(N)cc(C(F)(F)F)c3)c2cc1OCCOC1CC1(F)F (stereo partly drawn) [Example 82, N—((R)-1-(3-Amino-5-(trifluoromethyl)phenyl)ethyl)-6-(2-(2,2-difluorocyclopropyloxy)ethoxy)-7-methoxy-2-methylquinazolin-4-amine] |  |  | 
39 | 4.1 | COCCOc1cc2c(N[C@H](C)c3cccc(C(F)(F)CO)c3)nc(C)nc2cc1OC [Example 85] |  |  | 
